Data on three compounds can be found in patent publication US11008620B2, “Methods for treating cancer resistant to ErbB therapeutics” (Dana-Farber Cancer Institute, Inc., priority 2007, dated 2021).

Test [1] relates to HCC827 cells. Nature of the test: crystal violet staining of viable HCC827 cells, gefitinib and HGF. The following applies: 10 days, gefitinib 1 uM, HGF 50, 10 or 2 ng/ml (FIG. 10 bottom). The format is cell-based. As to the method:
[…] cells were seeded in a 10 cm petri dish and treated with the indicated conditions for 10 days. Gefitnib was used at 1 uM, and HGF was used at 50, 10, or 2 ng/ml. The plates were then stained with crystal violet to visualize viable cells.

Test [2] relates to HCC827 cells. Description: MTS survival assay of HCC827 cells with HGF in the presence of gefitinib. The following applies: 50 ng/ml of HGF (FIG. 10 top left). The format is cell-based. The source says:
MET activity was induced by treating HCC827 cells with its ligand, HGF (hepatocyte growth factor).
(In general: Tetrazolium dyes change colour on reduction, which living cells bring about.)

Test [3] deals with HCC827 cells. Nature of the test: Western blot of AKT phosphorylation in HCC827 treated with gefitinib and HGF. The format is cell-based. The note with it: gefitinib alone or with HGF, 6 hours (FIG. 10 top right). In general terms: A western blot detects proteins with antibodies after separation by electrophoresis.
Test [4] concerns EGFR mutant HCC827 cells and ERBB2 amplified BT474 cells. Description: p85 immunoprecipitation and Western blot in control cell lines HCC827 and BT474. The format is cell-based. The note with it: 1 μM, 6 hours (FIG. 3A).
The test system of test [5] is HCC827 GR cells. Nature of the test: MTS survival assay, gefitinib-resistant HCC827 GR cells. The note with it: HCC827 GR cell lines / GR5; single drugs or combination.
Procedure: This assay, a colorimetric method for determining the number of viable cells, is based on the bioreduction of 3-(4,5-dimethylthiazol-2-yl)-5-(3-carboxymethoxyphenyl)-2-(4-sulfophenyl)-2H-tetrazolium (MTS) by cells to a formazan product that is soluble in cell culture medium, can be detected spectrophotometrically and was performed according to previously established methods (3, 31, 10).
All experimental points were set up in six to twelve wells and all experiments were repeated at least three times. […] The curves were fitted using a non-linear regression model with a sigmoidal dose response.
Test [6] concerns ERBB3 and Gab1 association with p85 in HCC827 GR cells. Nature of the test: anti-p85 immunoprecipitation in HCC827 GR cells. The note with it: 1 μM each drug, 6 hours (FIG. 2C). It counts as cell-based.
Test [7] has as its system CHO cells co-expressing MET and ERBB3. The note with it: PHA-665,752 1 μM.
Procedure: Lysates were immunoprecipitated with anti-p85 antibodies and the immunoprecipitates were probed with anti-phospho-tyrosine, anti-ERBB-3 and anti-p85 antibodies (* indicates ERBB3 on the PTyr blot). In parallel, the lysates were analyzed by Western blotting and probed with the indicated antibodies. […] Lentiviral shRNA constructs containing a scrambled (SC) sequence, ERBB3 specific sequence, a control sequence (CTRL) or GFP were infected into SNU638 cells (Methods). Seventy-two hours following infection, the cells were lysed and probed with indicated antibodies. […] C. […] Growth of SNU-638 cells was assayed by an MTS assay 5 days following infection of shRNA constructs in B. Growth is normalized to the SC shRNA. […] The resulting proteins were lysed and probed with the indicated antibodies. […] The resulting lysates were probed with either ERBB3 or MET.
In test [8] the test system is HCC827 GR cells. Nature of the test: Western blot of EGFR/ERBB3/PI3K/Akt signaling in HCC827 GR cells. It counts as cell-based. The note with it: 1 μM each drug, 6 hours (FIG. 2B).
Test [9] concerns H1993 NSCLC cells, SNU638 and MKN45 gastric cancer cells. Description: p85 immunoprecipitation and Western blot in MET amplified cell lines. The following applies: 1 μM, 6 hours (FIG. 3A).
Procedure: Lysates were immunoprecipitated with anti-p85 antibodies and the immunoprecipitates were probed with anti-phospho-tyrosine, anti-ERBB-3 and anti-p85 antibodies (* indicates ERBB3 on the PTyr blot). In parallel, the lysates were analyzed by Western blotting and probed with the indicated antibodies.
Cells grown under the previously specified conditions were lysed in the following lysis buffer: 20 mM Tris, pH 7.4/150 mM NaCl/1% Nonidet P-40/10% glycerol/1 mM EDTA/1 mM EGTA/5 mM sodium pyrophosphate/50 mM NaF/10 nM (3-glycerophosphate/1 mM sodium vanadate/0.5 mM DTT/4 μg/ml leupeptin/4 μg/ml pepstatin/4 μg/ml apoprotein/1 mM PMSF. After cell lysis, lysates were centrifuged at 16,000×g for 5 min at 4° C. The supernatant was used for subsequent procedures. Western blot analyses were conducted after separation by SDS/PAGE electrophoresis and transfer to nitrocellulose membranes. Immunoblotting was performed according to the antibody manufacturers' recommendations. Antibody binding was detected using an enhanced chemiluminescence system (New England Nuclear Life Science Products Inc.).
Anti-ErbB-3 antibody was obtained from Lab Vision. […] The total Met (C-28) antibody was purchased from Santa Cruz Biotechnology (Santa Cruz, Calif.).

As to “HGF: hepatocyte growth factor, ligand of MET”, the “viable cells (crystal violet)” value in the test on HCC827 cells [1] is “increases with increased concentrations”. Further, in the test with HCC827 cells [2], the “survival in the presence of gefitinib (MTS)” value is on record as “markedly improved survival”. Further, the AKT phosphorylation result in the test with HCC827 cells [3] is listed as “at least partially reversed”.
Regarding `Cc1[nH]c(/C=C2\C(=O)Nc3ccc(S(=O)(=O)Cc4c(Cl)cccc4Cl)cc32)c(C)c1C(=O)N1CCC[C@@H]1CN1CCCC1` [PHA-665,752], the PI3K signaling result in test [4] is recorded as “has no effect on PI3K signaling”. For the same compound, the “growth of HCC827 GR cells under drug (MTS)” value in the test on HCC827 GR cells [5] is on record as “resistant”. For the same compound, the “co-precipitation of ERBB3 and Gab1 with p85” value in [6] is listed as “blocks Gab-1 association with p85”. Further, in test [7] (CHO co-expressing MET and ERBB3, gefitinib 3 mM (so in the source), lapatinib 3 μM, PP2 10 μM, 6 hours (FIG. 3D)), the ERBB3 phosphorylation entry is given as “blocked”. For the same compound, the “p85 co-precipitation with ERBB3” value in test [7] (CHO transfected with MET and ERBB3, gefitinib 3 μM, lapatinib 3 μM (FIG. 3E)) is recorded as “inhibited”. Further, the “ERBB3 and Akt phosphorylation” value is “minimal effect on P-Akt levels” in the test with HCC827 GR cells [8], “no significant effect on p-ERBB3 or p-AKT” with HCC827 GR cells [8] (listed as PHA-665752) and “only inhibited” in test [9]. In addition, the “ERBB3 association with p85” value in test [9] is “disrupted”.
With `CC#CC(=O)Nc1ccc2ncnc(Nc3cccc(Br)c3)c2c1` [CL-387,785], the “growth of HCC827 GR cells under drug (MTS)” value with HCC827 GR cells [5] is given as “did not suppress the growth”.
